Experimental data taken from patent US20220054432A1, “COMPOSITION FOR INCREASING RETENTION OF CAROTENOID IN BLOOD” (ENEOS Corporation, priority 2018, published 2022).

Experiments:
[1] = Retention in blood: carotenoid concentration in serum of mice (Test Example 1); format: in vivo, ICR strain mice; conditions: 50 mg/kg body weight orally once daily for 10 days, blood 4 hours after last administration
Excerpt: Adonixanthin was used as an asymmetric carotenoid, and astaxanthin was used as a symmetric carotenoid. As experimental animals, ICR strain mice were used. Fourteen (14) mice were used, and 4 mice each were assigned to the adonixanthin-administration group and the astaxanthin-administration group, and 6 mice were assigned to the control administration group. In grouping, each group was constituted so that the mean body weight in each group was as uniform as possible based on the body weight on the day before initiation of administration. For each experimental group, blood was collected before initiation of administration of dosing substances. […] Each of the concentration of adonixanthin in serum of blood collected from the adonixanthin-administration group (concentration relative to 1 mL of serum) and the concentration of astaxanthin in serum of blood collected from the astaxanthin-administration group (concentration relative to 1 mL of serum) was measured. […] In HPLC, the concentration of adonixanthin was measured as a concentration of each of the cis isomer and the trans isomer. In HPLC, the concentration of astaxanthin was measured as a concentration of each of the cis isomer and the trans isomer. […] From serum collected from the control administration group, neither adonixanthin nor astaxanthin were detected.

[2] = Retention in blood: carotenoid concentration in serum of cynomolgus monkeys (Test Example 3); format: in vivo; conditions: cynomolgus monkey, 50 mg/kg intragastric once daily for 10 days, serum 4 hours after last administration
Procedure: As experimental animals, cynomolgus monkeys were used. Two cynomolgus monkeys were used, and an adonixanthin dosing solution was administered to one monkey (adonixanthin-administering monkey), while an astaxanthin dosing solution was administered to the other monkey (astaxanthin-administering monkey). As the dosing solutions, the dosing solutions obtained in Preparation Example 2 were used, and the dosing solutions at a dose such that the dose of adonixanthin or astaxanthin was 50 mg/kg body weight were administered once daily for 10 days (the day of initiation of administration of the dosing solutions was defined as day 1). […] The dose in each administration was calculated based on the latest body weight at each administration time point (the body weight was measured on the day of initiation of acclimation, the day of end of acclimation, the day of initiation of administration, and before administration on day 8 of administration using an electric balance (HP-40K or GP-40K, both of which are manufactured by A&D Company, Limited)). […] Regarding each serum 4 hours after the last administration of the dosing solutions, each of the concentration of adonixanthin in serum collected from the adonixanthin-administering monkey and the concentration of astaxanthin in serum collected from the astaxanthin-administering monkey was measured. […]

Row | Compound | Concentration in serum (total of cis isomer and trans isomer), FIG. 1 [1] | Concentration in serum, FIG. 3 [2]
1 | CC1=C(/C=C/C(C)=C/C=C/C(C)=C/C=C/C=C(C)/C=C/C=C(C)/C=C/C2=C(C)C(=O)C(O)CC2(C)C)C(C)(C)CC(O)C1 (stereo not drawn) [adonixanthin, 3,3′-dihydroxy-β,β-caroten-4-one] | especially likely to be retained in blood | especially likely to be retained in blood
2 | CC1=C(/C=C/C(C)=C/C=C/C(C)=C/C=C/C=C(C)/C=C/C=C(C)/C=C/C2=C(C)C(=O)C(O)CC2(C)C)C(C)(C)CC(O)C1=O (stereo not drawn) [astaxanthin, 3,3′-dihydroxy-β,β-carotene-4,4′-dione] | exist in serum at a high concentration | exist in serum at a high concentration
